From ChEMBL document CHEMBL3044527, “Involvement of melanin synthesis and reactive oxygen species in phytotoxic action of l-DOPA in carrot cells” (2007)
Active and inactive are the calls of the source. The rule behind the calls is not given here.

How the values were obtained:
Assay type in all cases: functional
Daucus carota [1] = test: Phytotoxicity against Daucus carota (carrot) cells grown in culture assessed as increase in ROS level at 1 mM after 24 hr by MPEC-based chemiluminescence assay in presence of ascorbic acid relative to control
Daucus carota [2] = test: Phytotoxicity against Daucus carota (carrot) cells grown in culture assessed as lipid peroxidation at 1 mM after 2 days by TBARS method in presence of alpha-tocopherol relative to control
Daucus carota [3] = test: Phytotoxicity against Daucus carota (carrot) cells grown in culture assessed as melanin per packed cell volume at 1 mM after 6 days by spectrophotometric analysis in presence of alpha-tocopherol (reference value: 27.2 ug per packed cell volume)
Daucus carota [4] = test: Phytotoxicity against Daucus carota (carrot) cells grown in culture assessed as melanin per packed cell volume at 1 mM after 2 days by spectrophotometric analysis (reference value: 23.7 ug per packed cell volume)
Daucus carota [5] = test: Phytotoxicity against Daucus carota (carrot) cells grown in culture assessed as growth inhibition at 1 mM after 2 days relative to control; details: 48 h, values are per cent of control
Daucus carota [6] = test: Phytotoxicity against Daucus carota (carrot) cells grown in culture assessed as melanin per packed cell volume at 1 mM after 6 days by spectrophotometric analysis (reference value: 27.2 ug per packed cell volume)
Daucus carota [7] = test: Phytotoxicity against Daucus carota (carrot) cells grown in culture assessed as melanin per packed cell volume at 1 mM after 2 days by spectrophotometric analysis in presence of ascorbic acid (reference value: 23.7 ug per packed cell volume)
Daucus carota [8] = test: Phytotoxicity against Daucus carota (carrot) cells grown in culture assessed as increase in ROS level at 1 mM after 24 hr by MPEC-based chemiluminescence assay in presence of SOD relative to control
Daucus carota [9] = test: Phytotoxicity against Daucus carota (carrot) cells grown in culture assessed as melanin per packed cell volume at 1 mM after 4 days by spectrophotometric analysis (reference value: 21.3 ug per packed cell volume)
Daucus carota [10] = test: Phytotoxicity against Daucus carota (carrot) cells grown in culture assessed as growth inhibition at 1 mM after 2 to 6 days in presence of catalase relative to control
Daucus carota [11] = test: Phytotoxicity against Daucus carota (carrot) cells grown in culture assessed as growth inhibition at 1 mM after 4 days relative to control; details: 96 h, values are per cent of control
Daucus carota [12] = test: Phytotoxicity against Daucus carota (carrot) cells grown in culture assessed as growth inhibition at 0.1 mM after 6 days relative to control; details: 144 h, values are per cent of control
Daucus carota [13] = test: Phytotoxicity against Daucus carota (carrot) cells grown in culture assessed as growth inhibition at 1 mM after 6 days in presence of ascorbic acid relative to control
Daucus carota [14] = test: Phytotoxicity against Daucus carota (carrot) cells grown in culture assessed as growth inhibition at 0.1 mM after 4 days relative to control; details: 96 h, values are per cent of control
Daucus carota [15] = test: Phytotoxicity against Daucus carota (carrot) cells grown in culture assessed as growth inhibition at 1 mM after 2 days in presence of ascorbic acid relative to control
Daucus carota [16] = test: Phytotoxicity against Daucus carota (carrot) cells grown in culture assessed as melanin per packed cell volume at 1 mM after 2 days by spectrophotometric analysis in presence of alpha-tocopherol (reference value: 23.7 ug per packed cell volume)
Daucus carota [17] = test: Phytotoxicity against Daucus carota (carrot) cells grown in culture assessed as melanin per packed cell volume at 1 mM after 4 days by spectrophotometric analysis in presence of ascorbic acid (reference value: 21.3 ug per packed cell volume)
Daucus carota [18] = test: Phytotoxicity against Daucus carota (carrot) cells grown in culture assessed as melanin per packed cell volume at 0.1 mM after 4 days by spectrophotometric analysis (reference value: 21.3 ug per packed cell volume)
Daucus carota [19] = test: Phytotoxicity against Daucus carota (carrot) cells grown in culture assessed as growth inhibition at 0.1 mM after 8 days relative to control; details: 192 h, values are per cent of control
Daucus carota [20] = test: Phytotoxicity against Daucus carota (carrot) cells grown in culture assessed as growth inhibition at 1 mM after 4 days in presence of ascorbic acid relative to control
Daucus carota [21] = test: Phytotoxicity against Daucus carota (carrot) cells grown in culture assessed as melanin per packed cell volume at 0.1 mM after 6 days by spectrophotometric analysis (reference value: 27.2 ug per packed cell volume)
Daucus carota [22] = test: Phytotoxicity against Daucus carota (carrot) cells grown in culture assessed as melanin per packed cell volume at 0.1 mM after 2 days by spectrophotometric analysis (reference value: 23.7 ug per packed cell volume)
Daucus carota [23] = test: Phytotoxicity against Daucus carota (carrot) cells grown in culture assessed as growth inhibition at 1 mM after 2 to 6 days in presence of SOD relative to control
Daucus carota [24] = test: Phytotoxicity against Daucus carota (carrot) cells grown in culture assessed as growth inhibition at 1 mM after 6 days relative to control; details: 144 h, values are per cent of control
Daucus carota [25] = test: Phytotoxicity against Daucus carota (carrot) cells grown in culture assessed as growth inhibition at 1 mM after 2 to 6 days in presence of alpha-tocopherol relative to control
Daucus carota [26] = test: Phytotoxicity against Daucus carota (carrot) cells grown in culture assessed as increase in ROS level after 24 hr by MPEC-based chemiluminescence assay relative to control
Daucus carota [27] = test: Phytotoxicity against Daucus carota (carrot) cells grown in culture assessed as growth inhibition at 1 mM after 8 days relative to control; details: 192 h, values are per cent of control
Daucus carota [28] = test: Phytotoxicity against Daucus carota (carrot) cells grown in culture assessed as lipid peroxidation at 1 mM after 4 to 6 days by TBARS method relative to control
Daucus carota [29] = test: Phytotoxicity against Daucus carota (carrot) cells grown in culture assessed as melanin per packed cell volume at 1 mM after 4 days by spectrophotometric analysis in presence of alpha-tocopherol (reference value: 21.3 ug per packed cell volume)
Daucus carota [30] = test: Phytotoxicity against Daucus carota (carrot) cells grown in culture assessed as growth inhibition at 0.1 mM after 2 days relative to control; details: 48 h, values are per cent of control
Daucus carota [31] = test: Phytotoxicity against Daucus carota (carrot) cells grown in culture assessed as increase in ROS level at 1 mM after 24 hr by MPEC-based chemiluminescence assay in presence of catalase relative to control
Daucus carota [32] = test: Phytotoxicity against Daucus carota (carrot) cells grown in culture assessed as lipid peroxidation at 1 mM after 2 days by TBARS method in presence of ascorbic acid relative to control
Daucus carota [33] = test: Phytotoxicity against Daucus carota (carrot) cells grown in culture assessed as melanin per packed cell volume at 1 mM after 6 days by spectrophotometric analysis in presence of ascorbic acid (reference value: 27.2 ug per packed cell volume)
Daucus carota [34] = test: Phytotoxicity against Daucus carota (carrot) cells grown in culture assessed as lipid peroxidation at 1 mM after 2 days by TBARS method relative to control

SMILES: N[C@@H](Cc1ccc(O)c(O)c1)C(=O)O [LEVODOPA]
- Activity (Daucus carota [1]): inactive
- Activity (Daucus carota [2]): inactive
- Activity (Daucus carota [3]): 28.1 µg
- Activity (Daucus carota [4]): 28.4 µg
- growth, % of control at 1000 µM (Daucus carota [5]): 62%
- Activity (Daucus carota [6]): 66.1 µg
- Activity (Daucus carota [7]): 17.9 µg
- Activity (Daucus carota [8]): Active
- Activity (Daucus carota [9]): 42.8 µg
- Activity (Daucus carota [10]): Active
- growth, % of control at 1000 µM (Daucus carota [11]): 59.6%
- growth, % of control at 100 µM (Daucus carota [12]): 80.9%
- Activity (Daucus carota [13]): inactive
- growth, % of control at 100 µM (Daucus carota [14]): 88.2%
- Activity (Daucus carota [15]): inactive
- Activity (Daucus carota [16]): 27.9 µg
- Activity (Daucus carota [17]): 22.9 µg
- Activity (Daucus carota [18]): 31.7 µg
- growth, % of control at 100 µM (Daucus carota [19]): 83.7%
- Activity (Daucus carota [20]): inactive
- Activity (Daucus carota [21]): 32.2 µg
- Activity (Daucus carota [22]): 26.8 µg
- Activity (Daucus carota [23]): Active
- growth, % of control at 1000 µM (Daucus carota [24]): 60.9%
- Activity (Daucus carota [25]): inactive
- Activity (Daucus carota [26]): Active
- growth, % of control at 1000 µM (Daucus carota [27]): 64.9%
- Activity (Daucus carota [28]): inactive
- Activity (Daucus carota [29]): 27.4 µg
- growth, % of control at 100 µM (Daucus carota [30]): 84.7%
- Activity (Daucus carota [31]): Active
- Activity (Daucus carota [32]): inactive
- Activity (Daucus carota [33]): 28.2 µg
- Activity (Daucus carota [34]): Active
